{"source": "patent US20030203963A1", "about": "“Antimicrobial agent” (priority 2001, published 2003)", "key": {"Ps. fluorescens 3756": {"tested_on": "Ps. fluorescens 3756", "experiment": "Chicken soup trial at 8° C.", "type": "cell-based, Pseudomonas fluorescens", "details": "chicken soup at 8° C.", "text": "(§1) A local supermarket brand of cream of chicken soup was used as a model food system. 600 g packs were purchased from the local supermarket. This was a ‘fresh home-made type’ of soup that was stored in the chill cabinet, with a short shelf life. It was chosen because it is a rich, nutritious food system containing a range of food components including meat, dairy and vegetable.\n(§2) Ingredients were labelled as: chicken stock (water, duck fat, chicken, salt, flavourings, yeast extracts, pork gelatine, glucose syrup, vegetable concentrate, milk protein, sugar, malto-dextrin, vegetable oil, citric acid, lactose, chicken fat), ilk, chicken (9%), cream (8%), onion, potato, vegetable oil, modified maize starch, wheat flour, lemon juice, salt, white pepper. pH 5.912. Protein: 3.3%; carbohydrate: 4.7%; fat: 7.2%; fibre: 0.2%; sodium: 0.1%\n(§3) For the test the soup was mixed 2:1 in water (to facilitate sampling and mixing) and sterilised by autoclaving at 121° C. for 15 minutes. For each experiment the pH of the soup was recorded; this was between pH 5.79-5.88.\nFor TCS010412/8 (which was incubated at 8° C.), APP batch number APP20010213 (concentration 169 mg APP/ml) was used to prepare tests containing 0, 2000 or 4000 ppm APP. 5 g of filter-sterilised APP stock solution was added to 94 g of soup, mixed and then 1 ml of a diluted inoculum suspension (cells or spores as appropriate) was added to give a test inoculum level of 10^3 cfu/g. The soup mixture was shaken vigorously to ensure homogeneous distribution of the APP and micro-organisms. The tests were tested by viable count and then incubated at 8° C. and tested on a twice-weekly basis.\n(§4) For TCS010521/8 (incubated at 8° C.), samples were prepared in 27.8 g quantities. 1.5 g of an APP stock solution was added, and the tests inoculated with 0.3 ml of a suitably diluted cell or spore suspension to give a final inoculum of ca. 10^3 cfu/g. APP was tested at 0, 500 and 1000 ppm, and batch number APP20010213 (at 169 mg/ml) was used. The tests were sampled by viable count and then incubated at 8° C. and tested on a twice-weekly basis."}, "Salm Typhimurium S29": {"tested_on": "Salm Typhimurium S29", "experiment": "Chicken soup trial at 8° C.", "type": "cell-based, Salmonella Typhimurium", "details": "chicken soup at 8° C., TCSM010521, APP215", "text": "as §1, §2, §3\nas §4, with “The tests were sampled by viable count and then incubated at 8° C. and tested on a twice-weekly basis.” left out"}, "S. cerevisiae 9763": {"tested_on": "S. cerevisiae 9763", "experiment": "Chicken soup trial at 8° C.", "type": "cell-based, Saccharomyces cerevisiae", "details": "for Effect on growth: chicken soup at 8° C., TCSM010521, APP215", "text": "as §1, §2, §3, §4"}, "TAVC": {"tested_on": "TAVC", "experiment": "Uninoculated test in raw meat", "type": "cell-based", "details": "2000 ppm APP; for Viable counts: raw meat at 8° C.", "description": "[…] of raw minced beef was purchased from the local butcher. 10 g of either a 2% (20,000 ppm) stock solution of APP2001213 or water was added, and the meat mixed thoroughly. Initial counts were carried out, and then the meat was incubated at 8° C. and sampled for 3 consecutive days. The pH of the raw meat was 5.3."}, "Lactobacillus sake A10": {"tested_on": "Lactobacillus sake A10", "experiment": "Well diffusion test", "type": "cell-based", "details": "20 μl of 49.3 mg/ml (4.9%) APP sample E002012", "description": "(§5) Seeded 10 ml agar plates of various test organisms were prepared, with inoculation of either 20 μl spore suspension or overnight broth. This gave an inoculum level of ca. 10^5-10^6 cfu/ml. After the plates had set, small wells were cut, and 20 μl of APP sample was loaded. Plates were incubated overnight at appropriate temperature and examined after 1-2 days (after which microbial growth is clearly visible) for zones of inhibition."}, "Bacillus cereus 204": {"tested_on": "Bacillus cereus 204", "experiment": "Well diffusion test", "type": "cell-based", "details": "20 μl of 49.3 mg/ml (4.9%) APP sample E002012", "description": "as §5"}, "[1]": {"tested_on": "Saccharomyces cerevisiae ATCC 9763", "experiment": "Well diffusion test", "type": "cell-based", "details": "20 μl of 49.3 mg/ml (4.9%) APP sample E002012", "description": "as §5"}, "[2]": {"tested_on": "Pseudomonas fluorescens 327", "experiment": "Well diffusion test", "type": "cell-based", "details": "20 μl of 49.3 mg/ml (4.9%) APP sample E002012", "description": "as §5"}, "[3]": {"tested_on": "Saccharomyces carlsbergensis CRA6413", "experiment": "Well diffusion test", "type": "cell-based", "details": "20 μl of 49.3 mg/ml (4.9%) APP sample E002012", "description": "as §5"}, "Micrococcus luteus": {"tested_on": "Micrococcus luteus", "experiment": "Well diffusion test", "type": "cell-based", "details": "20 μl of 49.3 mg/ml (4.9%) APP sample E002012", "description": "as §5"}, "[4]": {"tested_on": "Brochothrix thermosphacta CRA7883", "experiment": "Well diffusion test", "type": "cell-based", "details": "20 μl of 49.3 mg/ml (4.9%) APP sample E002012", "description": "as §5"}, "[5]": {"tested_on": "Clostridium sporogenes Campden", "experiment": "Well diffusion test", "type": "cell-based", "details": "20 μl of 49.3 mg/ml (4.9%) APP sample E002012", "description": "as §5"}, "[6]": {"tested_on": "Listeria monocytogenes S23", "experiment": "Well diffusion test", "type": "cell-based", "details": "20 μl of 49.3 mg/ml (4.9%) APP sample E002012", "description": "as §5"}, "Ps. fluorescens": {"tested_on": "Ps. fluorescens", "experiment": "Test in milk", "type": "cell-based, Pseudomonas fluorescens", "details": "for Control for: 2000 ppm, TMGB010605", "description": "8.9 ml samples of UHT milk containing 0.5% glucose and the indicator bromocresol purple (0.01%) were prepared and sterilised by autoclaving. The pH before APP addition was pH 6.65. Appropriate stock solutions of APP batch number APP20010215 (at 138 mg/ml) were prepared and filter sterilised. 1 ml of each was added to the milk to prepare tests containing 0, 1000 and 2000 ppm APP. Tests were then inoculated with 100 μl of diluted overnight broth cultures or spore suspensions to give a final inoculum level of ca. 10^3 cfu/ml. These and uninoculated tests were incubated at 20 and 8° C. and examined daily for visible changes compared to uninoculated control."}, "[7]": {"tested_on": "Cl. sporogenes (strains 1.221; Campden; ABC20; 4.440)", "experiment": "Sensitivity testing for Clostridium species in cooked meat medium", "type": "cell-based, Clostridium sporogenes", "details": "highest level tested 2000 ppm APP20010215, anaerobically at 37° C.", "description": "Stock solutions of APP215 (0.5, 1 and 2%) were prepared and filter-sterilised. Cooked meat medium (CMM, Oxoid) was prepared by distributing 1 g of the medium to individual test tubes, which were then filled with 8.9 ml water. After autoclaving 100 μl of the APP stock solutions were added, to give final concentrations of 0, 500, […] and 2000 ppm APP. The tests were inoculated with […] of Clostridium spores, to give an inoculum level of ca. 10 cfu/ml. The tubes were overlaid with 3 ml of 2% agar to maintain anaerobicity. The tests were incubated at 37° C., and examined daily for signs of growth (turbidity, gas production)."}}}
{"compound": "O=C1CC(CO)OC=C1O", "note": "(stereo not drawn) [APP, Ascopyrone P]", "values": [{"measurement": "Effect on growth", "setting": "Ps. fluorescens 3756; 500 ppm, TCSM010521, APP215", "value": "Little effect with 500 ppm"}, {"measurement": "Counts undetectable", "setting": "Ps. fluorescens 3756; 1000 ppm, TCSM010521, APP215", "value": "At 1000 ppm counts undetectable >3 d"}, {"measurement": "Total inhibition for", "setting": "Ps. fluorescens 3756; 1000 ppm, TCSM010521, APP215", "value": "Total inhibition by 1000 ppm for >27 days."}, {"measurement": "Total inhibition for", "setting": "Ps. fluorescens 3756; 2000 ppm, TCS010412, APP20010213", "value": "Total inhibition by 2000 and 4000 ppm for >60 days."}, {"measurement": "Total inhibition for", "setting": "Ps. fluorescens 3756; 4000 ppm, TCS010412, APP20010213", "value": "Total inhibition by 2000 and 4000 ppm for >60 days."}, {"measurement": "Counts undetectable from day", "setting": "Ps. fluorescens 3756; APP samples (2000, 4000 ppm), TCS010412, APP20010213", "value": "Counts undetectable from day 1 in APP samples"}, {"measurement": "Total inhibition for", "setting": "Salm Typhimurium S29; 500 ppm", "value": "Total inhibition by 500 ppm for 25 d"}, {"measurement": "Total inhibition for", "setting": "Salm Typhimurium S29; 1000 ppm", "value": "Total inhibition by 1000 ppm for >27 d"}, {"measurement": "Effect on growth", "setting": "S. cerevisiae 9763; 500 ppm", "value": "No effect with 500 and 1000 ppm"}, {"measurement": "Effect on growth", "setting": "S. cerevisiae 9763; 1000 ppm", "value": "No effect with 500 and 1000 ppm"}, {"measurement": "No inhibition (effect on growth of target organism by APP)", "setting": "S. cerevisiae 9763; Chicken soup at 8° C. pH 5.8, (1000 ppm)", "value": "S. cerevisiae (1000"}, {"measurement": "Viable counts", "setting": "TAVC; day 0, TRM010521", "value": "9.3 × 10^6 cfu/g"}, {"measurement": "Viable counts", "setting": "TAVC; day 1, TRM010521", "value": "2.2 × 10^8 cfu/g"}, {"measurement": "Viable counts", "setting": "TAVC; day 2, TRM010521", "value": "1.5 × 10^8 cfu/g"}, {"measurement": "Viable counts", "setting": "TAVC; day 3, TRM010521", "value": "5.0 × 10^8 cfu/g"}, {"measurement": "Counts in control and APP samples", "setting": "TAVC; uninoculated raw meat at 8° C., pH 5.3", "value": "identical"}, {"measurement": "Sensitivity in well diffusion (zones of inhibition)", "setting": "Lactobacillus sake A10", "value": "sensitive"}, {"measurement": "Sensitivity in well diffusion (zones of inhibition)", "setting": "Bacillus cereus 204", "value": "sensitive"}, {"measurement": "Sensitivity in well diffusion (zones of inhibition)", "setting": "[1]", "value": "sensitive"}, {"measurement": "Sensitivity in well diffusion (zones of inhibition)", "setting": "[2]", "value": "sensitive"}, {"measurement": "Sensitivity in well diffusion (zones of inhibition)", "setting": "[3]", "value": "sensitive"}, {"measurement": "Sensitivity in well diffusion (zones of inhibition)", "setting": "Micrococcus luteus", "value": "sensitive"}, {"measurement": "Sensitivity in well diffusion (zones of inhibition)", "setting": "[4]", "value": "sensitive"}, {"measurement": "Sensitivity in well diffusion (zones of inhibition)", "setting": "[5]", "value": "sensitive"}, {"measurement": "Sensitivity in well diffusion (zones of inhibition)", "setting": "[6]", "value": "sensitive"}, {"measurement": "Control for", "setting": "Ps. fluorescens; milk at 8° C.", "value": "> 7", "unit": "days"}, {"measurement": "Control for", "setting": "Ps. fluorescens; milk at 20° C.", "value": "2 to 3", "unit": "days"}, {"measurement": "Total inhibition (effect on growth of target organism by 2000 ppm APP)", "setting": "Ps. fluorescens; Milk at 8° C. pH 6.65", "value": "Ps. fluorescens"}, {"measurement": "Partial inhibition (effect on growth of target organism by 2000 ppm APP)", "setting": "Ps. fluorescens; Milk at 20° C. pH 6.65", "value": "Ps. fluorescens"}, {"measurement": "Growth inhibition", "setting": "[7]", "value": "No growth inhibition"}]}
